PMC5011342, “A high throughput drug screening assay to identify compounds that promote oligodendrocyte differentiation using acutely dissociated and purified oligodendrocyte precursor cells” (BMC Research Notes, 2016)
Values joined by “and” are separate entries in the source; they are usually repeats but may differ in a detail not shown here. Equal values may be shown once. Read-outs that look alike come from different tables or passages of the source.

Tested on: expanded OPCs
Test: cells
Conditions: for viability at 0.1 µM / viability at 1 µM / viability at 10 µM: Rattus norvegicus, 72 h
Method: Having established a consistent assay for measuring OL differentiation in vitro, the next step was to utilize this assay to assess the ability of a wide array of compounds to promote OL differentiation. Prior to library screening, we first established the maximum non-toxic dose of each compound in the library. […] Therefore, we added each compound in the NIH clinical collection (NCC) library to OPCs at 10, 1, and 0.1 µM concentrations. Three days later, we assessed viability of the treated cells by measuring AlamarBlue fluorescence, a measure of cell viability (see “Methods” section). […] Appropriately, we established three sets of screening concentrations for library compounds: non-toxic compounds were tested at 10 and 2 µM, slightly toxic compounds (only toxic at 10 µM) were tested at 2 and 0.4 µM, and very toxic compounds were tested at 0.4 and 0.08 µM.
OPCs were expanded in vitro by seeding into PDL-coated tissue culture flasks at 1000–2000 cells/cm^2 in differentiation media supplemented with 10 ng/ml PDGF-AA. Proliferating OPCs were fed every 2–3 days and supplemented with 2–3× concentration of PDGF as needed to prevent OPC differentiation. After 6–7 days of proliferation, OPCs were harvested by trypsinization, plated into PDL-coated 96-well Falcon plates and centrifuged at 200×g to facilitate cell attachment, survival, and even distribution of cells. Expanded OPCs were seeded in differentiation media at 10,000 cells/well and incubated for 2 h at 37 °C, 10 % CO2 prior to addition of compounds. The NCC library was diluted and added to cells at 10, 1, and 0.1 µM; each concentration was tested in quadruplicate. As a positive control for the induction of toxicity, 5 ng/ml tunicamycin was added to 8 wells in each plate. Three days later, a 1:10 dilution of alamarBlue® (AB) was added to each well and cells were incubated 4 h at 37 °C, 10 % CO2. AB fluorescence was measured using a PerkinElmer Victor II fluorescence microplate reader (PerkinElmer, Waltham, MA) with 560 nm excitation/590 nm emission filters. For library screening, the highest concentration of each compound was adjusted to a minimally toxic concentration based on this toxicity data. Compounds were additionally tested at a second concentration that was 1/5th of the top concentration. The final concentration of DMSO in each well was 0.1 %.

[1] = alamarBlue viability of expanded OPCs, compound at 0.1 µM, relative to DMSO control
[2] = alamarBlue viability of expanded OPCs, compound at 1 µM, relative to DMSO control
[3] = alamarBlue viability of expanded OPCs, compound at 10 µM, relative to DMSO control
[4] = read-out: 0.1 µM (% DMSO), alamarBlue viability of expanded OPCs, compound at 0.1 µM, sheet All Tox data
[5] = read-out: 1 µM (% DMSO), alamarBlue viability of expanded OPCs, compound at 1 µM, sheet All Tox data
[6] = read-out: 10 µM (% DMSO), alamarBlue viability of expanded OPCs, compound at 10 µM, sheet All Tox data
[7] = read-out: 0.1 µM (% DMSO), alamarBlue viability, NCC library compound at 0.1 µM, sheet "All Tox data"
[8] = read-out: 1 µM (% DMSO), alamarBlue viability, NCC library compound at 1 µM, sheet "All Tox data"
[9] = read-out: 10 µM (% DMSO), alamarBlue viability, NCC library compound at 10 µM, sheet "All Tox data"

In the case of Cc1ccccc1C(OCCN(C)C)c1ccccc1 (stereo not drawn) [Orphenadrine], the “0.1 µM (% DMSO)” value [1] is reported as 86.1 % DMSO and 95.1 % DMSO, the “1 µM (% DMSO)” value [2] is reported as 67.2 % DMSO and 74.3 % DMSO and the “10 µM (% DMSO)” value [3] is reported as 47.8 % DMSO and 50.8 % DMSO.
COc1cc([C@@H]2c3cc4c(cc3[C@H](O)[C@H]3COC(=O)[C@H]23)OCO4)cc(OC)c1OC [Podophyllotoxin] was tested, and the “0.1 µM (% DMSO)” value [1] was 14.8 % DMSO, the “1 µM (% DMSO)” value [2] was 10.6 % DMSO and the “10 µM (% DMSO)” value [3] was 9.1 % DMSO.
Molecule CCCN[C@H]1CCc2nc(N)sc2C1 [Pramipexole] has a viability at 0.1 µM [4] of 88.8%, a viability at 1 µM [5] of 92.5% and a viability at 10 µM [6] of 96%.
Work on COc1cc2nc(N3CCN(C(=O)c4ccco4)CC3)nc(N)c2cc1OC [Prazosin] yielded a viability at 0.1 µM [4] of 80.9%, a viability at 1 µM [5] of 87.6% and a viability at 10 µM [6] of 13.1%.
CC(C)CC(N(C)C)C1(c2ccc(Cl)cc2)CCC1 (stereo not drawn) [Sibutramine] was tested, and the viability at 0.1 µM [7] was 88.3%, the viability at 1 µM [8] was 84% and the viability at 10 µM [9] was 84.4%.
For Cc1cc(NS(=O)(=O)c2ccc(N)cc2)no1 [Sulfamethoxazole], the viability at 0.1 µM [7] was 90.6%, the viability at 1 µM [8] was 96.3% and the viability at 10 µM [9] was 96.5%.
For C[C@]12CC[C@H]3[C@@H](CCC4=CC(=O)CC[C@@]43C)[C@@H]1CC[C@@H]2O [Testosterone], the viability at 0.1 µM (read-out: 0.1 µM (% DMSO)) was 88.4%, the viability at 1 µM (read-out: 1 µM (% DMSO)) was 87.4% and the viability at 10 µM (read-out: 10 µM (% DMSO)) was 86.2%. For the same molecule, the “0.1 µM (% DMSO)” value (rat) was 87.3 % DMSO, the “1 µM (% DMSO)” value (rat) was 87.6 % DMSO and the “10 µM (% DMSO)” value (rat) was 84.8 % DMSO.
Work on Clc1ccccc1CN1CCc2sccc2C1 [Ticlopidine] yielded a viability at 0.1 µM [4] of 107%, a viability at 1 µM [5] of 103% and a viability at 10 µM [6] of 90.3%.
With COc1ccc(CCN(C)CCCC(C#N)(c2ccc(OC)c(OC)c2)C(C)C)cc1OC (stereo not drawn) [Verapamil] the viability at 0.1 µM (read-out: 0.1 µM (% DMSO)) was 84.5%, the viability at 1 µM (read-out: 1 µM (% DMSO)) was 92.8% and the viability at 10 µM (read-out: 10 µM (% DMSO)) was 43%.
In the case of CC[C@]1(O)C[C@H]2CN(CCc3c([nH]c4ccccc34)[C@@](C(=O)OC)(c3cc4c(cc3OC)N(C=O)[C@H]3[C@@](O)(C(=O)OC)[C@H](OC(C)=O)[C@]5(CC)C=CCN6CC[C@]43[C@@H]65)C2)C1 [Vincristine], the viability at 0.1 µM [7] is reported as 17.4%, the viability at 1 µM [8] is reported as 11.1% and the viability at 10 µM [9] is reported as 9%.
For Medroxyprogesterone, the “0.1 µM (% DMSO)” value (alamarBlue viability, NCC library compound at 0.1 µM, sheet "All Tox data") was 117.3 % DMSO, the “1 µM (% DMSO)” value (alamarBlue viability, NCC library compound at 1 µM, sheet "All Tox data") was 126.7 % DMSO and the “10 µM (% DMSO)” value (alamarBlue viability, NCC library compound at 10 µM, sheet "All Tox data") was 141.4 % DMSO.
